Tested on: Soybean
Test: Metribuzin phytotoxicity screen of soybean lines in greenhouse pots
Assay type: in vivo, Glycine max
Details: applied after planting, scored 16 days later
Description: In the case of a visual metribuzin sensitivity detection system, a plant is rated for the percent of visual toxicity compared to a control plant which is sensitive to metribuzin.
Soybean seeds were planted two seeds per pot in two inch pots with clay loam soil (1.36 o.m.). Six replications were arranged in a Randomized Complete Block Design in a greenhouse. Metribuzin was applied at 560 grams active ingredient per hectare after planting. Sixteen days later plants were scored for visual phytotoxicity scored as percent injury.

CSc1nnc(C(C)(C)C)c(=O)n1N [Metribuzin, metribuzin]
Injury (%) @ 560 g ai/ha (soybean line A1036478): 0% | Injury (%) @ 560 g ai/ha (soybean line AR1111926): 20% | Injury (%) @ 560 g ai/ha (soybean line AR1112922): 0% | Injury (%) @ 560 g ai/ha (soybean line AR1210100): 15% | Injury (%) @ 560 g ai/ha (soybean line AR1210104): 45% | Injury (%) @ 560 g ai/ha (soybean line AR1210856): 9% | Injury (%) @ 560 g ai/ha (soybean line AR1210886): 0% | Injury (%) @ 560 g ai/ha (soybean line AR1211262): 0% | Injury (%) @ 560 g ai/ha (soybean line AR1211948): 44% | Injury (%) @ 560 g ai/ha (soybean line BK1011572): 23% | Injury (%) @ 560 g ai/ha (soybean line BK1211980): 17% | Injury (%) @ 560 g ai/ha (soybean line BY1210428): 54% | Injury (%) @ 560 g ai/ha (soybean line BY1211100): 49% | Injury (%) @ 560 g ai/ha (soybean line BY1212083): 0% | Injury (%) @ 560 g ai/ha (soybean line BY1212201): 3% | Injury (%) @ 560 g ai/ha (soybean line BY1212223): 0% | Injury (%) @ 560 g ai/ha (soybean line BY1213080): 0% | Injury (%) @ 560 g ai/ha (soybean line CC1210319): 0% | Injury (%) @ 560 g ai/ha (soybean line CC1211481): 12% | Injury (%) @ 560 g ai/ha (soybean line CC1211818): 0% | Injury (%) @ 560 g ai/ha (soybean line CC1212005): 35% | Injury (%) @ 560 g ai/ha (soybean line CC1215412): 0% | Injury (%) @ 560 g ai/ha (soybean line CC1215903): 0% | Injury (%) @ 560 g ai/ha (soybean line CC1215927): 45% | Injury (%) @ 560 g ai/ha (soybean line CC1217018): 0% | Injury (%) @ 560 g ai/ha (soybean line CC1217019): 0% | Injury (%) @ 560 g ai/ha (soybean line CE1210923): 0% | Injury (%) @ 560 g ai/ha (soybean line CE1210997): 0% | Injury (%) @ 560 g ai/ha (soybean line CE1211033): 37% | Injury (%) @ 560 g ai/ha (soybean line CE1211109): 0% | Injury (%) @ 560 g ai/ha (soybean line CE1211211): 14% | Injury (%) @ 560 g ai/ha (soybean line CE1211264): 28% | Injury (%) @ 560 g ai/ha (soybean line CE1211339): 0% | Injury (%) @ 560 g ai/ha (soybean line CE1211377): 0% | Injury (%) @ 560 g ai/ha (soybean line CE1211403): 0% | Injury (%) @ 560 g ai/ha (soybean line CE1211693): 0% | Injury (%) @ 560 g ai/ha (soybean line CE1212024): 0% | Injury (%) @ 560 g ai/ha (soybean line CE1213779): 38% | Injury (%) @ 560 g ai/ha (soybean line CE1214014): 47% | Injury (%) @ 560 g ai/ha (soybean line CE1214443): 0% | Injury (%) @ 560 g ai/ha (soybean line CE1214602): 0% | Injury (%) @ 560 g ai/ha (soybean line CE1214610): 47% | Injury (%) @ 560 g ai/ha (soybean line G01010146): 0% | Injury (%) @ 560 g ai/ha (soybean line GO1110272): 54% | Injury (%) @ 560 g ai/ha (soybean line GO1110602): 53% | Injury (%) @ 560 g ai/ha (soybean line LL511): 92% | Injury (%) @ 560 g ai/ha (soybean line LL513N): 2% | Injury (%) @ 560 g ai/ha (soybean line LL563N): 5% | Injury (%) @ 560 g ai/ha (soybean line LL595N): 96% | Injury (%) @ 560 g ai/ha (soybean line NE0912640): 0% | Injury (%) @ 560 g ai/ha (soybean line NE1212391): 0% | Injury (%) @ 560 g ai/ha (soybean line NE1214412): 5% | Injury (%) @ 560 g ai/ha (soybean line NE1214737): 0% | Injury (%) @ 560 g ai/ha (soybean line NE1215099): 0% | Injury (%) @ 560 g ai/ha (soybean line OW1011073): 11% | Injury (%) @ 560 g ai/ha (soybean line OW1011829): 50% | Injury (%) @ 560 g ai/ha (soybean line OW1012353): 17% | Injury (%) @ 560 g ai/ha (soybean line OW1113014): 34% | Injury (%) @ 560 g ai/ha (soybean line OW1210742): 45% | Injury (%) @ 560 g ai/ha (soybean line OW1212626): 25% | Injury (%) @ 560 g ai/ha (soybean line OW1213195): 28% | Injury (%) @ 560 g ai/ha (soybean line OW1213207): 28% | Injury (%) @ 560 g ai/ha (soybean line OW1213282): 23% | Injury (%) @ 560 g ai/ha (soybean line OW1213323): 42% | Injury (%) @ 560 g ai/ha (soybean line S77-T7): 23% | Injury (%) @ 560 g ai/ha (soybean line S78-G6): 10% | Injury (%) @ 560 g ai/ha (soybean line SJ1114205): 0% | Injury (%) @ 560 g ai/ha (soybean line SJ1210059): 0% | Injury (%) @ 560 g ai/ha (soybean line SJ1210512): 11% | Injury (%) @ 560 g ai/ha (soybean line SJ1210526): 0% | Injury (%) @ 560 g ai/ha (soybean line SJ1210678): 0% | Injury (%) @ 560 g ai/ha (soybean line SJ1210829): 0% | Injury (%) @ 560 g ai/ha (soybean line SJ1210844): 0% | Injury (%) @ 560 g ai/ha (soybean line SJ1210862): 0% | Injury (%) @ 560 g ai/ha (soybean line SJ1210867): 25% | Injury (%) @ 560 g ai/ha (soybean line SJ1211190): 55% | Injury (%) @ 560 g ai/ha (soybean line SJ1212283): 0% | Injury (%) @ 560 g ai/ha (soybean line SJ1213014): 0% | Injury (%) @ 560 g ai/ha (soybean line SJ1213512): 0% | Injury (%) @ 560 g ai/ha (soybean line SJ1213805): 48% | Injury (%) @ 560 g ai/ha (soybean line WN1116259): 0% | Injury (%) @ 560 g ai/ha (soybean line WN1118256): 47% | Injury (%) @ 560 g ai/ha (soybean line WN1118297): 0%
